Test results published in paper PMC6599972, “Inhibition of host NOX1 blocks tumor growth and enhances checkpoint inhibitor–based immunotherapy” (Life Science Alliance, 2019).

What was measured:
NOX4 = biological target: T1, NOX4 (Homo sapiens, UniProt Q9NPH5); test: Amplex Red/HRP ROS production assay on membranes of NOX4-overexpressing cells, concentration-response; type: biochemical
T1 construct: membranes prepared from cells specifically overexpressing the human NOX isoform
T1 sequence (Q9NPH5 1-578): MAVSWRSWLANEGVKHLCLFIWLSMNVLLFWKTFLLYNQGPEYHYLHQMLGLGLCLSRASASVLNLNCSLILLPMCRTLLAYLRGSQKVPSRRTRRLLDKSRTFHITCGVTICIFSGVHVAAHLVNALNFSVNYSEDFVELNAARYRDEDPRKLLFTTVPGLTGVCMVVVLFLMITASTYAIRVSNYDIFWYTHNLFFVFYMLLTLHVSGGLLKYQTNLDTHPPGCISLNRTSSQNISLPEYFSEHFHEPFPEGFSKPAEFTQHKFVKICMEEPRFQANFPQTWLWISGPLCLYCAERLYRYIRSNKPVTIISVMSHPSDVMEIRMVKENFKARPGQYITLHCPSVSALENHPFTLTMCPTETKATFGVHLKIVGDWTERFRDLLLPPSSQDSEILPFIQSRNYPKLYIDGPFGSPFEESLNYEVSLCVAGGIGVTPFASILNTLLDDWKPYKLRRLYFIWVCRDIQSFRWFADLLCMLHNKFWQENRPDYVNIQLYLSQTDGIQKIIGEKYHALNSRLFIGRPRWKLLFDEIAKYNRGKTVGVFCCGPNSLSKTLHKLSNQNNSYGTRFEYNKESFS

NOX1 = biological target: T2, NOX1 (Homo sapiens, UniProt Q9Y5S8); test: Amplex Red/HRP ROS production assay on membranes of NOX1-overexpressing cells, concentration-response; type: biochemical
T2 construct: membranes prepared from cells specifically overexpressing the human NOX isoform
T2 sequence (Q9Y5S8 1-564): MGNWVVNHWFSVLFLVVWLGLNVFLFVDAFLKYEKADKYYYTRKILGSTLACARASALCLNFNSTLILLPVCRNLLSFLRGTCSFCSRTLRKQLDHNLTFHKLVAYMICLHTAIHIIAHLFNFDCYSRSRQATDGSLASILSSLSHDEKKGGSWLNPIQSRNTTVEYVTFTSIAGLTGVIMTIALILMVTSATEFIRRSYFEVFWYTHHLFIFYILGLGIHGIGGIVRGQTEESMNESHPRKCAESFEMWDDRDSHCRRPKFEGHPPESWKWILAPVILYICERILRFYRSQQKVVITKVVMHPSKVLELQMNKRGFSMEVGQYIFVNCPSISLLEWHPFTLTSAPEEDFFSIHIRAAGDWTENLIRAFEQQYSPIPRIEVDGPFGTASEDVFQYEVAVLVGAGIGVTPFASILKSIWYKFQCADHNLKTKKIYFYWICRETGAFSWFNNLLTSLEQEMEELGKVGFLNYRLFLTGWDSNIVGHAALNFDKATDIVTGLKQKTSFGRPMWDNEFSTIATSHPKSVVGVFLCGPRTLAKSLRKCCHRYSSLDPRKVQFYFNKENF

Ki (NOX4): 4000 nM
Ki (NOX1): 60 ± 6 nM
Substance: GKT771
